Results reported in ChEMBL document CHEMBL5441381, “ASAP - In vitro antiviral effect” (2024).

Columns and labels:
[1] = system: Middle East respiratory syndrome-related coronavirus; test: microbe, parasite or virus in culture; assay type: functional, organism-based, Chlorocebus sabaeus, VeroE6/TMPRSS2; conditions: Middle East respiratory syndrome-related coronavirus, VeroE6/TMPRSS2
SARS-CoV-2 [2] = test: (§1) Functional immunofluorescence assay to measure dose dependent changes in antiviral-drug inhibitory efficacy against hCoV-19/USA-WA1/2020 in HeLa-ACE2 cells which are seeded prior to drug treatment, then infected with hCoV-19/USA-WA1/2020. Cells are fixed with 10 % formaldehyde, washed with PBS, permeabilized with permeabilization buffer, then washed with wash buffer. The cells are incubated with nucleoprotein primary antibody IC7C7. Following primary staining, cells are washed with wash buffer and incubated in a solution of with Alexa fluor 488 and DAPI. Infected and uninfected cells are visualized and analyzed by Gen5 software. The assay has been performed by Icahn School of Medicine at Mount Sinai.; assay type: organism-based, Homo sapiens
SARS-CoV-2 [3] = test: as §1, with “iPSC-Pneumocyte” for “HeLa-ACE2”, “to” for “to drug”; assay type: organism-based, Homo sapiens; conditions: Severe acute respiratory syndrome coronavirus 2, Pneumocyte; for EC90: Baseline response 0 %, Maximum response 100 %
[4] = system: Middle East respiratory syndrome-related coronavirus; test: microbe, parasite or virus in culture; assay type: functional, organism-based, Chlorocebus sabaeus; conditions: Vero 76
[5] = Severe acute respiratory syndrome coronavirus 2, HeLa-ACE2

Cn1ncc(-c2cc3c(N[C@@H](c4ccc5c(n4)OCCO5)C(C)(C)C)ncnc3[nH]2)c1C#N
EC50 [1]: > 5 µM | EC90 [1]: > 5 µM | EC50 (SARS-CoV-2 [2]; [5]): 1.49 µM | EC90 (SARS-CoV-2 [2]; Severe acute respiratory syndrome coronavirus 2, HeLa-ACE2, Baseline response 0 %, Hill slope -0.781, Maximum measured 101.751 %, Maximum response 100 %, Minimum measured 4.671 %, R squared 0.23): > 20 µM | EC90 (SARS-CoV-2 [2]; Severe acute respiratory syndrome coronavirus 2, HeLa-ACE2, Baseline response 0 %, Hill slope -0.984, Maximum measured 108.122 %, Maximum response 100 %, Minimum measured 8.006 %, R squared 0.973): > 10 µM | EC50 (SARS-CoV-2 [2]; hela-ace2): 1.6 µM

Cc1nn(C)cc1-c1cc2c(N[C@H](c3ccc4c(c3)S(=O)(=O)CCC4)C(C)C)ncnc2[nH]1
EC50 [1]: > 5 µM | EC90 [1]: > 5 µM | EC50 (SARS-CoV-2 [2]; [5]): > 20 µM | EC90 (SARS-CoV-2 [2]; Severe acute respiratory syndrome coronavirus 2, HeLa-ACE2, Baseline response 0 %, Hill slope -2.191, Maximum measured 111.189 %, Maximum response 100 %, Minimum measured 56.402 %, R squared 0.73): > 20 µM | EC90 (SARS-CoV-2 [2]; Severe acute respiratory syndrome coronavirus 2, HeLa-ACE2, Baseline response 0 %, Hill slope -5.449, Maximum measured 120.747 %, Maximum response 100 %, Minimum measured 82.491 %, R squared 0.099): > 20 µM

CC(C)[C@@H](Nc1ncnc2[nH]c(C(=O)N[C@@H]3CCN(C)C3)cc12)c1ccc2c(c1)S(=O)(=O)CCC2
EC50 [1]: > 5 µM | EC90 [1]: > 5 µM | EC50 (SARS-CoV-2 [2]; [5]): > 20 µM | EC90 (SARS-CoV-2 [2]; Severe acute respiratory syndrome coronavirus 2, HeLa-ACE2, Baseline response 0 %, Hill slope 0.166, Maximum measured 108.327 %, Maximum response 100 %, Minimum measured 87.557 %, R squared 0.011): > 20 µM | EC90 (SARS-CoV-2 [2]; Severe acute respiratory syndrome coronavirus 2, HeLa-ACE2, Baseline response 0 %, Hill slope -0.788, Maximum measured 109.068 %, Maximum response 100 %, Minimum measured 93.8 %, R squared 0.114): > 20 µM | EC50 (SARS-CoV-2 [3]): > 50 µM | EC90 (SARS-CoV-2 [3]; Hill slope -0.484, Maximum measured 101.646 %, Minimum measured 52.305 %, R squared 0.601): > 50 µM

COc1ccc([C@H](Cc2nnn[nH]2)NC(=O)c2ncnc3[nH]ccc23)cc1
EC50 [1]: > 5 µM | EC90 [1]: > 5 µM | EC50 (SARS-CoV-2 [2]; [5]): > 20 µM | EC90 (SARS-CoV-2 [2]; Severe acute respiratory syndrome coronavirus 2, HeLa-ACE2, Baseline response 0 %, Hill slope -0.286, Maximum measured 116.588 %, Maximum response 100 %, Minimum measured 75.952 %, R squared 0.436): > 20 µM | EC90 (SARS-CoV-2 [2]; Severe acute respiratory syndrome coronavirus 2, HeLa-ACE2, Baseline response 0 %, Hill slope -1.346, Maximum measured 102.013 %, Maximum response 100 %, Minimum measured 88.847 %, R squared 0.139): > 20 µM

CNCc1cc(-c2cc3c(N[C@@H](c4ccc5c(c4)S(=O)(=O)CCC5)C(C)C)ncnc3[nH]2)co1
EC50 [1]: > 5 µM | EC90 [1]: > 5 µM | EC50 (SARS-CoV-2 [2]; [5]): > 20 µM | EC90 (SARS-CoV-2 [2]; Severe acute respiratory syndrome coronavirus 2, HeLa-ACE2, Baseline response 0 %, Hill slope -1.471, Maximum measured 134.366 %, Maximum response 100 %, Minimum measured 28.123 %, R squared 0.287): > 20 µM | EC90 (SARS-CoV-2 [2]; Severe acute respiratory syndrome coronavirus 2, HeLa-ACE2, Baseline response 0 %, Hill slope -3.107, Maximum measured 113.346 %, Maximum response 100 %, Minimum measured 56.361 %, R squared 0.692): > 20 µM | EC50 (SARS-CoV-2 [2]; hela-ace2): 11.6 µM | EC50 (SARS-CoV-2 [3]): 3.34 µM | EC90 (SARS-CoV-2 [3]; Hill slope -0.579, Maximum measured 92.989 %, Minimum measured 2.106 %, R squared 0.758): > 50 µM

C[C@H](C(=O)O)[C@@H](NC(=O)c1ncnc2[nH]ccc12)c1ccc(Br)cc1
EC50 [1]: > 5 µM | EC90 [1]: > 5 µM | EC50 (SARS-CoV-2 [2]; [5]): > 20 µM | EC90 (SARS-CoV-2 [2]; Severe acute respiratory syndrome coronavirus 2, HeLa-ACE2, Baseline response 0 %, Hill slope -0.083, Maximum measured 104.611 %, Maximum response 100 %, Minimum measured 71.809 %, R squared 0.037): > 20 µM | EC90 (SARS-CoV-2 [2]; Severe acute respiratory syndrome coronavirus 2, HeLa-ACE2, Maximum measured 2742.07 %, Minimum measured 91.919 %): > 20 µM

CNC(=O)Cn1cc(-c2cc3c(N[C@@H](c4ccc5c(c4)S(=O)(=O)CCC5)C(C)C)ncnc3[nH]2)cn1
EC50 [1]: > 5 µM | EC90 [1]: > 5 µM | EC50 (SARS-CoV-2 [2]; [5]): > 20 µM | EC90 (SARS-CoV-2 [2]; Severe acute respiratory syndrome coronavirus 2, HeLa-ACE2, Baseline response 0 %, Hill slope 1.327, Maximum measured 117.537 %, Maximum response 100 %, Minimum measured 90.244 %, R squared 0.066): > 20 µM | EC90 (SARS-CoV-2 [2]; Severe acute respiratory syndrome coronavirus 2, HeLa-ACE2, Maximum measured 116.513 %, Minimum measured 98.017 %): > 20 µM | EC50 (SARS-CoV-2 [3]): > 50 µM | EC90 (SARS-CoV-2 [3]; Hill slope -7.964, Maximum measured 130.776 %, Minimum measured 73.915 %, R squared 0.151): > 50 µM

CC(C)[C@@H](Nc1ncnc2[nH]c(-c3cnn(C)c3C#N)cc12)c1ccc2c(n1)OCCO2
EC50 [1]: > 5 µM | EC90 [1]: > 5 µM | EC90 (SARS-CoV-2 [2]; Baseline response 0 %, EC90 CI (lower) 0.252 uM, EC90 CI (upper) 0.378 uM, Hill slope -1.375, Maximum measured 105.062 %, Maximum response 100 %, Minimum measured 1.471 %, R squared 0.975): 7.55 µM | EC90 (SARS-CoV-2 [2]; Baseline response 0 %, EC90 CI (lower) 1.033 uM, EC90 CI (upper) 2.755 uM, Hill slope -2.587, Maximum measured 119.294 %, Maximum response 100 %, Minimum measured 1.653 %, R squared 0.93): 9.22 µM | EC90 (SARS-CoV-2 [2]; Severe acute respiratory syndrome coronavirus 2, HeLa-ACE2, Baseline response 0 %, Hill slope -24.486, Maximum measured 143.7 %, Maximum response 100 %, Minimum measured 4.604 %, R squared 0.738): 6.44 µM | EC90 (SARS-CoV-2 [2]; Severe acute respiratory syndrome coronavirus 2, HeLa-ACE2, Baseline response 0 %, EC90 CI (lower) 1.926 uM, EC90 CI (upper) 3.068 uM, Hill slope -3.008, Maximum measured 101.777 %, Maximum response 100 %, Minimum measured 4.949 %, R squared 0.988): 10.5 µM | EC50 (SARS-CoV-2 [3]): 12.7 µM | EC90 (SARS-CoV-2 [3]; EC90 CI (lower) 0 uM, EC90 CI (upper) 0 uM, Hill slope -10.753, Maximum measured 116.418 %, Minimum measured 5.314 %, R squared 0.553): 15.6 µM

CNC(=O)c1c[nH]c2ncnc(N[C@H](c3ccc4c(c3)S(=O)(=O)CCC4)C(C)C)c12
EC50 [4]: > 32 µM | EC50 (SARS-CoV-2 [2]; [5]): > 20 µM | EC90 (SARS-CoV-2 [2]; Severe acute respiratory syndrome coronavirus 2, HeLa-ACE2, Baseline response 0 %, Hill slope -10.584, Maximum measured 109.331 %, Maximum response 100 %, Minimum measured 66.391 %, R squared 0.561): > 20 µM | EC50 (SARS-CoV-2 [3]): 6.74 µM | EC90 (SARS-CoV-2 [3]; Hill slope -0.412, Maximum measured 88.736 %, Minimum measured 31.934 %, R squared 0.862): > 50 µM
